Reference: patent publication US10806142B2, “2-amino-5-ketoxime-pyrimidine derivatives and their use for controlling undesired plant growth” (Bayer CropScience Aktiengesellschaft, priority 2015, dated 2020)

Legend:
[1] = logp (HCOOH), physicochemical characterization; settings: HCOOH (formic acid)
Viola tricolor [2] = test: Post-emergence herbicidal effect; format: in vivo; settings: visual score after about 3 weeks
Method: (§1) [table] 2. Post-Emergence Herbicidal Effect and Crop Plant Compatibility Seeds of monocotyledonous and dicotyledonous weed and crop plants are laid out in sandy loam in wood-fiber pots, covered with soil and cultivated in a greenhouse under good growth conditions. 2 to 3 weeks after sowing, the test plants are treated at the one-leaf stage. The compounds of the invention, formulated in the form of wettable powders (WP) or as emulsion concentrates (EC), are then sprayed onto the green parts of the plants as aqueous suspension or emulsion at a water application rate equating to 600 to 800 L/ha with addition of 0.2% wetting agent. After the trial plants have been left to stand in a greenhouse under optimal growth conditions for about 3 weeks, the efficacy of the formulations is scored visually in comparison to untreated controls (herbicidal action in percent (%): 100% efficacy=the plants have died, 0% efficacy=like control plants).

Setaria viridis [3] = test: Post-emergence herbicidal effect; format: in vivo; settings: visual score after about 3 weeks
Method: as §1

Ipomoea purpurea = test: Post-emergence herbicidal effect; format: in vivo; settings: visual score after about 3 weeks
Method: as §1

Amaranthus retroflexus [4] = test: Post-emergence herbicidal effect; format: in vivo; settings: visual score after about 3 weeks
Method: as §1

Viola tricolor [5] = test: Pre-emergence herbicidal effect; format: in vivo
Source text: (§2) 1. Pre-Emergence Herbicidal Effect and Crop Plant Compatibility Seeds of monocotyledonous and dicotyledonous weed plants and crop plants are laid out in wood-fiber pots in sandy loam and covered with soil. The compounds of the invention, formulated in the form of wettable powders (WP) or as emulsion concentrates (EC), are then applied to the surface of the covering soil as aqueous suspension or emulsion at a water application rate equating to 600 to 800 L/ha with addition of 0.2% wetting agent. After the treatment, the pots are placed in a greenhouse and kept under good growth conditions for the trial plants. The damage to the trial plants is scored visually after a trial duration of 3 weeks by comparison with untreated controls (herbicidal activity in percent (%): 100% efficacy=the plants have died, 0% efficacy=like control plants). [table]

Setaria viridis [6] = test: Pre-emergence herbicidal effect; format: in vivo
Source text: as §2

Avena fatua = test: Pre-emergence herbicidal effect; format: in vivo; settings: dosage 320 g a.i./ha
Source text: as §2

Alopecurus myosuroides = test: Pre-emergence herbicidal effect; format: in vivo
Source text: as §2

Abutilon theophrasti [7] = test: Pre-emergence herbicidal effect; format: in vivo; settings: dosage 320 g a.i./ha
Source text: as §2

Echinochloa crus-galli = test: Pre-emergence herbicidal effect; format: in vivo
Source text: as §2

Veronica persica = test: Pre-emergence herbicidal effect; format: in vivo
Source text: as §2

Stellaria media [8] = test: Pre-emergence herbicidal effect; format: in vivo
Source text: as §2

Amaranthus retroflexus [9] = test: Pre-emergence herbicidal effect; format: in vivo
Source text: as §2

Polygpnum convolvulus [10] = test: Pre-emergence herbicidal effect; format: in vivo
Source text: as §2

Matricaria inodora [11] = test: Pre-emergence herbicidal effect; format: in vivo
Source text: as §2

Cyperus esculentus = test: Post-emergence herbicidal effect; format: in vivo; settings: dosage 320 g a.i./ha, visual score after about 3 weeks
Method: as §1

Lolium multiflorum = test: Post-emergence herbicidal effect; format: in vivo; settings: dosage 320 g a.i./ha, visual score after about 3 weeks
Method: as §1

Abutilon theophrasti [12] = test: Post-emergence herbicidal effect; format: in vivo; settings: visual score after about 3 weeks
Method: as §1

Stellaria media [13] = test: Post-emergence herbicidal effect; format: in vivo; settings: visual score after about 3 weeks
Method: as §1

Polygpnum convolvulus [14] = test: Post-emergence herbicidal effect; format: in vivo; settings: visual score after about 3 weeks
Method: as §1

Matricaria inodora [15] = test: Post-emergence herbicidal effect; format: in vivo; settings: dosage 320 g a.i./ha, visual score after about 3 weeks
Method: as §1

CC/C(=N\O)c1cnc(N[C@H]2c3cc(C)ccc3C[C@@H]2C)nc1CC [Compound 1.40a, N-[(1R,2S)-2,6-Dimethyl-2,3-dihydro-1H-inden-1-yl]-4-ethyl-5-[(1E)-N-hydroxypropanimidoyl]pyrimidine-2-amine]
chromatographic logP [1]: 3.71 | Herbicidal activity against VIOTR (Viola tricolor [2]; dosage 80 g a.i./ha): 90% | Herbicidal activity against VIOTR (Viola tricolor [2]; dosage 320 g a.i./ha): 90% | Herbicidal activity against SETVI (Setaria viridis [3]; dosage 80 g a.i./ha): 100% | Herbicidal activity against SETVI (Setaria viridis [3]; dosage 320 g a.i./ha): 100% | Herbicidal activity against PHBPU (Ipomoea purpurea; dosage 80 g a.i./ha): 80% | Herbicidal activity against PHBPU (Ipomoea purpurea; dosage 320 g a.i./ha): 100% | Herbicidal activity against AMARE (Amaranthus retroflexus [4]; dosage 80 g a.i./ha): 90% | Herbicidal activity against AMARE (Amaranthus retroflexus [4]; dosage 320 g a.i./ha): 90% | Herbicidal activity against VIOTR (Viola tricolor [5]; dosage 80 g a.i./ha): 100% | Herbicidal activity against VIOTR (Viola tricolor [5]; dosage 320 g a.i./ha): 100% | Herbicidal activity against SETVI (Setaria viridis [6]; dosage 80 g a.i./ha): 100% | Herbicidal activity against SETVI (Setaria viridis [6]; dosage 320 g a.i./ha): 100% | Herbicidal activity against AVEFA (Avena fatua): 100% | Herbicidal activity against ALOMY (Alopecurus myosuroides; dosage 80 g a.i./ha): 90% | Herbicidal activity against ALOMY (Alopecurus myosuroides; dosage 320 g a.i./ha): 100% | Herbicidal activity against ABUTH (Abutilon theophrasti [7]): 100% | Herbicidal activity against ECHCG (Echinochloa crus-galli; dosage 80 g a.i./ha): 90% | Herbicidal activity against ECHCG (Echinochloa crus-galli; dosage 320 g a.i./ha): 100% | Herbicidal activity against VERPE (Veronica persica; dosage 80 g a.i./ha): 100% | Herbicidal activity against VERPE (Veronica persica; dosage 320 g a.i./ha): 100% | Herbicidal activity against STEME (Stellaria media [8]; dosage 80 g a.i./ha): 100% | Herbicidal activity against STEME (Stellaria media [8]; dosage 320 g a.i./ha): 100% | Herbicidal activity against AMARE (Amaranthus retroflexus [9]; dosage 80 g a.i./ha): 100% | Herbicidal activity against AMARE (Amaranthus retroflexus [9]; dosage 320 g a.i./ha): 100% | Herbicidal activity against POLCO (Polygpnum convolvulus [10]; dosage 80 g a.i./ha): 100% | Herbicidal activity against POLCO (Polygpnum convolvulus [10]; dosage 320 g a.i./ha): 100% | Herbicidal activity against MATIN (Matricaria inodora [11]; dosage 80 g a.i./ha): 90% | Herbicidal activity against MATIN (Matricaria inodora [11]; dosage 320 g a.i./ha): 100%

C/C(=N/Oc1ccc(F)cc1)c1cnc(N[C@H]2c3cc(C)ccc3C[C@@H]2C)nc1 [Compound 1.101b, N-[(1R,2S)-2,6-dimethyl-2,3-dihydro-1H-inden-1-yl]-5-[(1Z)-N-(4-fluorophenoxy)ethanimidoyl]pyrimidine-2-amine]
chromatographic logP [1]: 5.56 | Herbicidal activity against VIOTR (Viola tricolor [2]; dosage 80 g a.i./ha): 90% | Herbicidal activity against VIOTR (Viola tricolor [2]; dosage 320 g a.i./ha): 90% | Herbicidal activity against CYPES (Cyperus esculentus): 100% | Herbicidal activity against PHBPU (Ipomoea purpurea; dosage 320 g a.i./ha): 100% | Herbicidal activity against LOLMU (Lolium multiflorum): 100% | Herbicidal activity against ABUTH (Abutilon theophrasti [12]; dosage 80 g a.i./ha): 80% | Herbicidal activity against ABUTH (Abutilon theophrasti [12]; dosage 320 g a.i./ha): 100% | Herbicidal activity against STEME (Stellaria media [13]; dosage 80 g a.i./ha): 80% | Herbicidal activity against STEME (Stellaria media [13]; dosage 320 g a.i./ha): 90% | Herbicidal activity against AMARE (Amaranthus retroflexus [4]; dosage 320 g a.i./ha): 90% | Herbicidal activity against POLCO (Polygpnum convolvulus [14]; dosage 80 g a.i./ha): 80% | Herbicidal activity against POLCO (Polygpnum convolvulus [14]; dosage 320 g a.i./ha): 100% | Herbicidal activity against MATIN (Matricaria inodora [15]): 100% | Herbicidal activity against VIOTR (Viola tricolor [5]; dosage 80 g a.i./ha): 90% | Herbicidal activity against VIOTR (Viola tricolor [5]; dosage 320 g a.i./ha): 100% | Herbicidal activity against SETVI (Setaria viridis [6]; dosage 320 g a.i./ha): 100% | Herbicidal activity against ECHCG (Echinochloa crus-galli; dosage 320 g a.i./ha): 90% | Herbicidal activity against VERPE (Veronica persica; dosage 80 g a.i./ha): 100% | Herbicidal activity against VERPE (Veronica persica; dosage 320 g a.i./ha): 100% | Herbicidal activity against STEME (Stellaria media [8]; dosage 80 g a.i./ha): 100% | Herbicidal activity against STEME (Stellaria media [8]; dosage 320 g a.i./ha): 100% | Herbicidal activity against AMARE (Amaranthus retroflexus [9]; dosage 80 g a.i./ha): 90% | Herbicidal activity against AMARE (Amaranthus retroflexus [9]; dosage 320 g a.i./ha): 100% | Herbicidal activity against POLCO (Polygpnum convolvulus [10]; dosage 320 g a.i./ha): 100% | Herbicidal activity against MATIN (Matricaria inodora [11]; dosage 80 g a.i./ha): 80% | Herbicidal activity against MATIN (Matricaria inodora [11]; dosage 320 g a.i./ha): 100%
